Structures can show the parent of a compound that is named as a salt. The source made the active and inactive calls.
Tests used:
[1] = viability of PTEN-deleted HCT116 cells – cell-based, HCT116 PTEN knockout, dose response (AID 1047); type: functional;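 note: HCT116 colon tumor cells with PTEN knocked out; cells exposed to compound for 60 hours before readout; potency for loss of cell viability measured by luminescence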
[2] = viability of HCT116 lacking mutant beta-catenin – cell-based, human colon tumor, dose response (AID 1045); type: functional;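 note: HCT116 colon tumor cells with beta catenin knocked out; cells exposed to compound for 60 hours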
Exodeoxyribonuclease V = Exodeoxyribonuclease V (Escherichia coli (strain K12), UniProt P04993+P07648+P08394); test: RecBCD inhibition via phage-restricted bacterial growth – absorbance, V66 E. coli, mutant T4 phage, counter-screen for AddAB inhibitor project, dose response (AID 492957); type: functional, cell-based, Escherichia coli str. K-12 substr. MG1655
Sequence of Exodeoxyribonuclease V (P04993 whole entry): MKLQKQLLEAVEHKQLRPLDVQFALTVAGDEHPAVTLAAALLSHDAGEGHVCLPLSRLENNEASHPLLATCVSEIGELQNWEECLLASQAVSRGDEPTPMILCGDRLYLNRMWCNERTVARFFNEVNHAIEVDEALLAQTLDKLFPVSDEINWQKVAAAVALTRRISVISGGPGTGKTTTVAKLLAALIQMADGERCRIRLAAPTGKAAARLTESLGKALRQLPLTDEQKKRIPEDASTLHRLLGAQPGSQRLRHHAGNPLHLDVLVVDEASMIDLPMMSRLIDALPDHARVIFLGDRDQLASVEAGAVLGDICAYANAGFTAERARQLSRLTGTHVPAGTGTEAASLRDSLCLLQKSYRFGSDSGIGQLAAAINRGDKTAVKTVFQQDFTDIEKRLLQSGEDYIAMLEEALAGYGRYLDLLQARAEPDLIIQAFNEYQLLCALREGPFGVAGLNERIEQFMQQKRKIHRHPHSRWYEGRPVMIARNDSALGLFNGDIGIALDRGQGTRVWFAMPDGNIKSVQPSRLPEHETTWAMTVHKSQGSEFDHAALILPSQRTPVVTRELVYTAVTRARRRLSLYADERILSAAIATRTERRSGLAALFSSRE
Sequence of Exodeoxyribonuclease V (P07648 whole entry): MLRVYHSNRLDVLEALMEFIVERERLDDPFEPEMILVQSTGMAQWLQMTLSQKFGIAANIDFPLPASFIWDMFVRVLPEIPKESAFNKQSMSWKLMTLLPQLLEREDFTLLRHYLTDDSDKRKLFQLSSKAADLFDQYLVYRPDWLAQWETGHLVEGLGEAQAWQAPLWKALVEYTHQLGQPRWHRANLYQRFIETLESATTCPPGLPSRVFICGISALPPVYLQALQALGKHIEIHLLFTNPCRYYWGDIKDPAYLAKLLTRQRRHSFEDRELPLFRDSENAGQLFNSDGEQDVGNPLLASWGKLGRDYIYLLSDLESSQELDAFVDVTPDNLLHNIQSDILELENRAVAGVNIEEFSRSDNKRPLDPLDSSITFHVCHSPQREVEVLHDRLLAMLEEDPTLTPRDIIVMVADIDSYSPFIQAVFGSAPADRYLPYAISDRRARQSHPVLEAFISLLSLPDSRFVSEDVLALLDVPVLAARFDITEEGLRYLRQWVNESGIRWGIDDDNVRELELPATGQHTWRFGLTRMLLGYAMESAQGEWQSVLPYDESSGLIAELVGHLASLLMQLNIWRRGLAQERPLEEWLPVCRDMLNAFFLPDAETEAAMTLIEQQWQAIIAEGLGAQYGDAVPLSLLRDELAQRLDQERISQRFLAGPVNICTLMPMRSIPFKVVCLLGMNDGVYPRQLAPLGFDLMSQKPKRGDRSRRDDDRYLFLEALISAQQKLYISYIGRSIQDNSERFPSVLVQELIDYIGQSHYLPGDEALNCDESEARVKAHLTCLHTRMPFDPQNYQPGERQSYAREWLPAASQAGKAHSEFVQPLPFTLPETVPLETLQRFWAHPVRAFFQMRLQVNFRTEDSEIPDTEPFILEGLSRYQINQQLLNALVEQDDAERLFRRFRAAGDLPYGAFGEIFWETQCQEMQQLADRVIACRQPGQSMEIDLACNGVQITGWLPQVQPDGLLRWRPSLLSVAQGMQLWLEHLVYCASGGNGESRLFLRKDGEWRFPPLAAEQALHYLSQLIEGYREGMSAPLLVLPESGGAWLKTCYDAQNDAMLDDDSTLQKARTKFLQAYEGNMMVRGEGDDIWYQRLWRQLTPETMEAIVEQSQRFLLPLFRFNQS
Sequence of Exodeoxyribonuclease V (P08394 whole entry): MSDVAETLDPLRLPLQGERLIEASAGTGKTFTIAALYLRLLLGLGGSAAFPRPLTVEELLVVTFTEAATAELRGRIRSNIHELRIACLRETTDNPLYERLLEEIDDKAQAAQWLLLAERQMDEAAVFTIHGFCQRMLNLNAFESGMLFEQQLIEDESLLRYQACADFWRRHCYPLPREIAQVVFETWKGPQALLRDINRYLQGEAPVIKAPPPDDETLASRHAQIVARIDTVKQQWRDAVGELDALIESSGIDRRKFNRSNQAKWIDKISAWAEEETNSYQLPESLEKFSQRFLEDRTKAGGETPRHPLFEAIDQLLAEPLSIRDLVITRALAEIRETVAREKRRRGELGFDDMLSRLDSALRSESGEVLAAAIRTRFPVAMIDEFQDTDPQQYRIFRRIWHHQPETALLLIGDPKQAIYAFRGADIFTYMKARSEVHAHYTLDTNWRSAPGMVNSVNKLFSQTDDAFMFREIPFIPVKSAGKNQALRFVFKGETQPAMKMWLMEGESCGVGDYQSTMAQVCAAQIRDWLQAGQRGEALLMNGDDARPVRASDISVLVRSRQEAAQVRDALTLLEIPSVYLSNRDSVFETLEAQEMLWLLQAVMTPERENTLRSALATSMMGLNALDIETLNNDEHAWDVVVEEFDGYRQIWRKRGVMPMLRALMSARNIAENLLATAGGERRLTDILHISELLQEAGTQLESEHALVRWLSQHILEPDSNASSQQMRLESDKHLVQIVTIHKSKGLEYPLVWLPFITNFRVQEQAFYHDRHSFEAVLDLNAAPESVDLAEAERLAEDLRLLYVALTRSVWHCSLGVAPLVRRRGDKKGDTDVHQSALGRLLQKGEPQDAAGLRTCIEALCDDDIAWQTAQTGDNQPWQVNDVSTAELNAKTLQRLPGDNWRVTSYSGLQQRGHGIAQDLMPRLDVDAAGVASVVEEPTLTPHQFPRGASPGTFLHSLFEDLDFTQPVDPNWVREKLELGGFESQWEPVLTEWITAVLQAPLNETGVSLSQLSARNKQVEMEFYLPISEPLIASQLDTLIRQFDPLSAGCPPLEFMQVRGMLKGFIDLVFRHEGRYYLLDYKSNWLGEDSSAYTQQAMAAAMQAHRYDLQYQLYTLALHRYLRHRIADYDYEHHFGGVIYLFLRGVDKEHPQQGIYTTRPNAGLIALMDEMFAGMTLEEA

[3] = Counterscreen for AddAB inhibitors: absorbance-based bacterial cell-based high throughput dose response assay for inhibitors of bacterial viability. [Related pubchem assays (depositor defined):AID435030, AID449728, AID449731, AID488942, AID488955, AID488956]; type: functional
Vero [4] = test: cells; type: functional, cell-based; details: Chlorocebus sabaeus
Vero [5] = test: cells; type: functional; details: Chlorocebus sabaeus
[6] = HGIII-sPLA2 enzyme inhibition potency – biochemical, QFRET, IC50, dose response (AID 743457);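 note: green fluorescence rise as the enzyme cleaves BODIPY PC-A2 in liposomes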
Escherichia coli [7] = test: microbe, parasite or virus in culture
[8] = molecular target: T1, Tyrosine-protein phosphatase non-receptor type 7 (Homo sapiens, UniProt P35236); type: functional
T1 sequence (P35236 whole entry): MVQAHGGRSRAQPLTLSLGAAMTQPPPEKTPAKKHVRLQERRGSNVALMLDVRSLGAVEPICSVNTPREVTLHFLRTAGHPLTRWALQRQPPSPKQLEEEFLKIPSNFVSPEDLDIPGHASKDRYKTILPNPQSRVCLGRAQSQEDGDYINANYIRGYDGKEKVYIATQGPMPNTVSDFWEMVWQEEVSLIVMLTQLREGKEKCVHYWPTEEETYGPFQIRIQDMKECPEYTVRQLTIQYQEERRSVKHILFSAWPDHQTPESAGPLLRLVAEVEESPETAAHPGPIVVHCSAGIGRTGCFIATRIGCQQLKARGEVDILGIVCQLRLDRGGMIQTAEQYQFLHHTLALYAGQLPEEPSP

[9] = molecular target: T2, Tyrosine-protein phosphatase non-receptor type 22 (Homo sapiens, UniProt Q9Y2R2); type: functional
T2 sequence (Q9Y2R2 whole entry): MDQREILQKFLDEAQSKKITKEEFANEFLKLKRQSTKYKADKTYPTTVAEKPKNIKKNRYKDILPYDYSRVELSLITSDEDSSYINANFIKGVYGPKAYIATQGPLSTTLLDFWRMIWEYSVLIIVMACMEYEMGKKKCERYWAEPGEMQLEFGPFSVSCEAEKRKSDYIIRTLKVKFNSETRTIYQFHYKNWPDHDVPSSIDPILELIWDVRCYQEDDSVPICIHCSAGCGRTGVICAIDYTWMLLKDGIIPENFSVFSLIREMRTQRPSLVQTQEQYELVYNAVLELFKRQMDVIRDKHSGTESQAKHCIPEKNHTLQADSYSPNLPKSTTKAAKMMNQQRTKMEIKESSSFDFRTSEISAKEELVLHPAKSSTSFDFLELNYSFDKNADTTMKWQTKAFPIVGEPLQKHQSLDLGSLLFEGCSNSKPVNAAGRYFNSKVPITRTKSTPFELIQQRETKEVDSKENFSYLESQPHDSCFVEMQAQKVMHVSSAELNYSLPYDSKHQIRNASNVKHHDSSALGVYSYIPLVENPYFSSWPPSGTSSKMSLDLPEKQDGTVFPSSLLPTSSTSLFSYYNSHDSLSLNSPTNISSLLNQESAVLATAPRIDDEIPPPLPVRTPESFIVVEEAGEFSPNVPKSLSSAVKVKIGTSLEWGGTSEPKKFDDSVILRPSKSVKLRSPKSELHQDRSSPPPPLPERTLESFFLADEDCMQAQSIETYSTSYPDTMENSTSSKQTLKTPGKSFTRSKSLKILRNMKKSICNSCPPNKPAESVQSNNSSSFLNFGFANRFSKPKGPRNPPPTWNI

[10] = molecular target: T2, Tyrosine-protein phosphatase non-receptor type 22; type: functional; remark: listed apart in the source
[11] = viability inhibitors of stage V gametocytes – luminescence, dose response (AID 1117278); type: functional, cell-based;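 note: gametocytes exposed to compound for 24 hours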
[12] = viability loss in human Jurkat cells – cell-based, luminescence, cytotoxicity control for P. falciparum gametocyte viability project, dose response (AID 1117277); type: functional;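 note: potency reflects loss of cellular ATP meaning fewer viable cells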
Mu-type opioid receptor [13] = molecular target: T3, Mu-type opioid receptor (Homo sapiens, UniProt P35372); type: functional, cell-based
T3 sequence (P35372 whole entry): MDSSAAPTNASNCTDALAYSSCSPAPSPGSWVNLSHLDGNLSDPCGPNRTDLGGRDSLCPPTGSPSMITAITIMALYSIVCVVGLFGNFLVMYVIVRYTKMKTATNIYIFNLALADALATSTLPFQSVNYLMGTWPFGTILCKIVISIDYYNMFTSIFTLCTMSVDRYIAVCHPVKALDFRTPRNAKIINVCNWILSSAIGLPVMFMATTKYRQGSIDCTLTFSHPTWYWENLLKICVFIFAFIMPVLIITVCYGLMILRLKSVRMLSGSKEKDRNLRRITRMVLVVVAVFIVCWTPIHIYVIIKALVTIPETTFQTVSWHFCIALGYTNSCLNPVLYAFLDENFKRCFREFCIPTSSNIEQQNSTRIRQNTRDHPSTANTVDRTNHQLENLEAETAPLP

[14] = molecular target: 5-hydroxytryptamine receptor 2A (Mus musculus, UniProt P35363); type: functional, cell-based;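 note: CHO-K1 cells with tagged receptor and beta-arrestin; agonist potency measured as compound-induced activation of the receptor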
Sequence of 5-hydroxytryptamine receptor 2A (P35363 whole entry): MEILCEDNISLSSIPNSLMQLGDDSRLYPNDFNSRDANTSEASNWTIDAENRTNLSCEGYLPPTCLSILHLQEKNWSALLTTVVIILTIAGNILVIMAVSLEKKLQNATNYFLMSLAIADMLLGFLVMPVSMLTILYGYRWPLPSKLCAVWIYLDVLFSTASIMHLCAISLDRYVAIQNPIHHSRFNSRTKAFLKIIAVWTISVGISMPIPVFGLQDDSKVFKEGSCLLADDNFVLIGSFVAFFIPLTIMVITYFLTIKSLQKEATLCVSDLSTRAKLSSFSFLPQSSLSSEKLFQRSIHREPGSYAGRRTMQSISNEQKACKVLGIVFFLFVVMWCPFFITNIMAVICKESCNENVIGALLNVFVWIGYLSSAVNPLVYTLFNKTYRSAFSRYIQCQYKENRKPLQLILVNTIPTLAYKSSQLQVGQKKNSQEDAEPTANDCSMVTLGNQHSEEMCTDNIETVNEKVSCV

Escherichia coli [15] = test: microbe, parasite or virus in culture; remark: listed apart in the source
[16] = molecular target: T4, Kappa-type opioid receptor (Homo sapiens, UniProt P41145); test: kappa opioid receptor activation by imaging – image-based, set 3, SAR follow-up (AID 488833); type: functional
T4 sequence (P41145 whole entry): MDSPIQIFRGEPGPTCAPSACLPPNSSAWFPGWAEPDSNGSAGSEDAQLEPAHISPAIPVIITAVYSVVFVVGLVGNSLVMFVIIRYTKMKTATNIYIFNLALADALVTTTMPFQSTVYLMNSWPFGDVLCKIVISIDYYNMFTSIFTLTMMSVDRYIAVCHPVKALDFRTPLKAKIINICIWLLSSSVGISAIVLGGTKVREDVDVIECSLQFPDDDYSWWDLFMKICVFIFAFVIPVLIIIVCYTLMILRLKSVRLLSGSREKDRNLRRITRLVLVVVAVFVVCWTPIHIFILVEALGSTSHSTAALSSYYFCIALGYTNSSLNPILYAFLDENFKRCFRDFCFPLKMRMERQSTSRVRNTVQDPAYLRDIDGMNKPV

Mu-type opioid receptor [17] = molecular target: T3, Mu-type opioid receptor; test: SAR Analysis of Agonists of the MOR Receptor using an Image-Based Assay - Set 3. [Related pubchem assays (depositor defined):AID1777, AID1785, AID1786, AID1966, AID2133, AID2136, AID2284, AID2285, AID2352]; type: functional
[18] = molecular target: Delta-type opioid receptor (Homo sapiens, UniProt P41143); test: SAR Analysis of Agonists of the DOR Receptor using an Image-Based Assay - Set 3. [Related pubchem assays (depositor defined):AID1777, AID1786]; type: functional
Sequence of Delta-type opioid receptor (P41143 whole entry): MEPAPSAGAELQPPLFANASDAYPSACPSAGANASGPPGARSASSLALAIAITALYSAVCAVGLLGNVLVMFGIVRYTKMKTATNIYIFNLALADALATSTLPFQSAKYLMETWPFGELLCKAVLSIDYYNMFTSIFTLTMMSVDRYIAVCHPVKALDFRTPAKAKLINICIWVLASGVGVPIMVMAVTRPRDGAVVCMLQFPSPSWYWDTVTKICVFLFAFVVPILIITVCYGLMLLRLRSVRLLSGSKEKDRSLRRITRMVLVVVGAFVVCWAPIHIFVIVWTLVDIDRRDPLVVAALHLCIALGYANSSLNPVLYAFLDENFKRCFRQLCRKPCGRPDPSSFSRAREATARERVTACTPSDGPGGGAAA

[19] = molecular target: T4, Kappa-type opioid receptor; test: SAR analysis of small molecule agonists of the kappa opioid receptor via a luminescent beta-arrestin assay - Set 3. [Related pubchem assays (depositor defined):AID1777, AID1785, AID1786, AID1966, AID2133, AID2136, AID2284, AID2500]; type: functional
Bcl-2-related protein A1 = Bcl-2-related protein A1 (Mus musculus, UniProt Q07440); type: functional;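 note: confirmatory dose–response counterscreen on Bfl-1, used to check hits from a UBC13 polyubiquitin inhibitor campaign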
Sequence of Bcl-2-related protein A1 (Q07440 whole entry): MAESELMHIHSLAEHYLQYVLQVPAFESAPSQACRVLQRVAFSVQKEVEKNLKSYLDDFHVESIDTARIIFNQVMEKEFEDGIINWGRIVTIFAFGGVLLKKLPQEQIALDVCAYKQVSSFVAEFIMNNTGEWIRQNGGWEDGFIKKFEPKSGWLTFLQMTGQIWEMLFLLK

[20] = molecular target: T5, Ubiquitin-conjugating enzyme E2 N (Homo sapiens, UniProt P61088); type: functional
T5 sequence (P61088 whole entry): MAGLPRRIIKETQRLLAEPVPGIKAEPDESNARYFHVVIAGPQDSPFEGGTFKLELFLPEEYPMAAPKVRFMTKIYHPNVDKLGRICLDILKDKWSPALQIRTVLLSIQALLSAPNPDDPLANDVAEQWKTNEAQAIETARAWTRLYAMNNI

[21] = molecular target: T5, Ubiquitin-conjugating enzyme E2 N; type: functional; remark: listed apart in the source

**Q.** For `CCCCCOc1ccc(CSC(=N)N)cc1[N+](=O)[O-]`, which EC50 [1] is on record?
**A.** Its EC50 is 25 µM (active).

**Q.** And the EC50 [2]?
**A.** The EC50 was 27 µM (active).

**Q.** And the IC50 (Exodeoxyribonuclease V)?
**A.** The IC50 was > 39.5 µM (inactive).

**Q.** What about the IC50 [3] of the same compound?
**A.** The IC50 was 83.6 µM (inactive).

**Q.** And the IC50 (Vero [4])?
**A.** The IC50 was 21.2 µM (active).

**Q.** And the CC50 (Vero [5])?
**A.** The CC50 was > 25 µM (active).

**Q.** And the IC50 [6]?
**A.** Its IC50 is > 122 µM (inactive).

**Q.** With `C[C@H](NS(=O)(=O)c1ccc(Cl)c(Cl)c1)C(=O)OCc1cc(=O)n2cc(Br)ccc2n1` as the compound, how does the AC50 (Escherichia coli [7]) read?
**A.** Its AC50 is 67.4 µM (active).

**Q.** With `CCOC1(C)OCC(=O)[C@]2(CCC3C4CCC5=CC(=O)C=CC5(C)C4C(=O)CC32C)O1` (stereo partly drawn) as the compound, how does the IC50 [8] read?
**A.** The IC50 was > 79.4 µM (inactive).

**Q.** What about the IC50 [9] of the same compound?
**A.** Its IC50 is > 79.4 µM (inactive).

**Q.** And the IC50 [10]?
**A.** The IC50 was > 79.4 µM (inactive).

**Q.** What does the source list for `COc1ccc(C(C#N)(CCC#N)CCC#N)cc1OC`?
**A.** IC50 [8]: > 79.4 µM (inactive); IC50 [9]: > 79.4 µM (inactive); IC50 [10]: > 79.4 µM (inactive); IC50 [11]: > 109 µM (inactive); IC50 [12]: > 83.3 µM (inactive)

**Q.** For `CN(C)[C@@H]1C(O)=C(C(N)=O)C(=O)[C@@]2(O)C(O)=C3C(=O)c4c(O)ccc(Cl)c4[C@@H](O)[C@H]3C[C@@H]12` [DEMECLOCYCLINE HYDROCHLORIDE], which EC50 (Mu-type opioid receptor [13]) is on record?
**A.** Its EC50 is 92.5 µM (inactive).

**Q.** And the EC50 [14]?
**A.** The EC50 was 13.7 µM (inactive).

**Q.** And the AC50 (Escherichia coli [15])?
**A.** The AC50 was 36 µM (active).

**Q.** And the AC50 (Escherichia coli [7])?
**A.** Its AC50 is 0.866 µM (active).

**Q.** Which EC50 [16] does the source give for `Fc1ccc(CSc2nnc(-c3ccccn3)n2Cc2ccco2)c(C(F)(F)F)c1` here?
**A.** Its EC50 is 5.39 µM (active).

**Q.** And the EC50 (Mu-type opioid receptor [17])?
**A.** Its EC50 is > 32 µM (inactive).

**Q.** And the EC50 [18]?
**A.** Its EC50 is > 64 µM (inactive).

**Q.** And the EC50 [19]?
**A.** Its EC50 is 8.27 µM (active).

**Q.** Which results are given for `Cc1cc(C(=O)NNC(=S)NC(=O)/C=C/c2ccccc2Cl)[nH]n1`?
**A.** IC50 (Bcl-2-related protein A1): > 20 µM (inactive); IC50 [20]: 6.96 µM (active); IC50 [21]: 5.24 µM (active); IC50 [6]: > 122 µM (inactive)

From ChEMBL document CHEMBL1201862, “PubChem BioAssay data set” (2004)
